Laboratory results published in US20240139220A1, “TREATMENT OF HPV INFECTION” (priority 2022, published 2024).

Experiments:
[1] = In vitro tissue permeation test in human cervical tissue; format: in vitro ADME; conditions: 0.1% gel, FIG. 116
Text: (§1) FIG. 116 is an in vitro tissue permeation test in vaginal tissue comparing Compound II to ABI-1968. […] Bars B and C show the tissue penetration of a 0.1% Compound II gel in […]. […] This may be a contributing factor to the performance of ABI-1968 in clinical studies. […] This is described in Example 41.

[2] = Hygroscicity by Dynamic Vapor Sorption (DVS) at 25° C.; format: physicochemical
Procedure: Hygroscopicity was investigated by DVS at 25° C., using the following method: […]

[3] = Ex vivo permeation and penetration across porcine vaginal tissue (Franz diffusion cells, IVPT); format: in vitro ADME; conditions: porcine vaginal tissue, FIG. 116; Compound II 0.1% gel, ABI-1968 1% and 3% formulations
Text: as §1
Freshly harvested porcine vaginal tissue was procured from local slaughterhouse in an ice box. The vaginal tissue was cut open to expose the mucosal surface and tissue was cleaned by gentle flow of PBS pH 7.4. The porcine vaginal tissue was cut into circular portions (approximately 2 cm^2) with help of a […] punch.
The circular portion of tissue was sandwiched between two chambers of a Franz diffusion cell with an active diffusion area of 1 cm^2, and the mucosal layer was exposed to the donor chambers. The resistance across porcine vaginal tissue was measured using a wave form generator to ensure the integrity of the tissue segment used for the permeation study. Porcine vaginal tissue with resistance of ≥3 KΩ.cm^2 was used for study. The receiver chamber was filled with 8 ml of 5% solutol PBS 7.4 pH, which was stirred at 600 rpm with a 3 mm magnetic stir bar and the temperature was maintained at 37° C. with a circulating water bath.
The ˜200 mg of gel was filled into tared 1 mL syringe and gel was dispensed to donor chamber. The gel was spread on to mucosal surface with pre weighed applicator. After loading and spreading of the gel onto surface of mucosal surface, the weight of 1 mL syringe and applicator was noted to determine the exact amount of gel loaded into donor chamber.
Time course (2 h, 4 h and 8 h) porcine vaginal permeation studies were performed. After loading gel, 500 μL samples were withdrawn from the receiver compartment at different time intervals and each time an equal volume of fresh receiver media was used to replace withdrawn samples. The sample withdrawn at each time interval were stored immediately in −20° C. until analysis. After 2, 4 and 8 h, the formulation was removed from the donor chamber with help of syringe and cleaned with cotton swab. The tissue was removed and washed gently with wash solution (50% methanol in water) 5 times and alternatively cleaning with cotton swab.
An 8 mm punch of active diffusion area of washed porcine vaginal tissue was removed, weighed and transferred into a tube. This tube was immediately placed into dry ice for ˜15 min. After specified time, tissue was removed and placed in precooled dish. The tissue was minced into smaller pieces on a dish with a precooled surgical blade. The minced tissue was transferred to sample tubes and dish was rinsed with 1 ml of 5% solutol in PBS 7.4 pH and transferred to same tissue sample tube. These tubes were stored in −70° C. until analysis.
The samples stored at −20° C. was removed and thawed at room temperature for 30 min. The drug from receptor fluid was centrifuged at 13000 rpm for 5 min and to 200 μL of supernatant equal volume of extraction solvent was added. These samples were centrifuged at 13000 rpm for 5 min and supernatant was transferred into vials for analysis.
The minced tissue samples stored at −70° C. were removed and thawed at room temperature for ˜90 min. The samples were kept for shaking at room temperature for 4 h in BioShaker. After 4 h, samples were centrifuged at 13000 rpm for 5 min. To 100 μL of supernatant, 400 μL of extraction solvent was added and vortexed for 2 min. […]

## CCOC(=O)[C@H](C)N[P@@](=O)(COCCn1cnc2c(OC)nc(N)nc21)OCc1ccccc1.O=C(O)/C=C/C(=O)O [Compound II]
[1]
  Tissue penetration: high tissue penetration
[2]; cycle of 40-0-95-0-45% relative humidity
  XRPD pattern after humidity cycle: does not change
[2]; exposed to a cycle of 40-0-95-0-45% relative humidity
  Water content retained: about 0.25%
[3]
  Tissue penetration: high tissue penetration
